Tests used:
[1] = target: T1, 5-hydroxytryptamine receptor 2C (Homo sapiens, UniProt P28335); assay: Displacement of [3H]mesulergine from 5HT2C receptor
T1 sequence (P28335 whole entry): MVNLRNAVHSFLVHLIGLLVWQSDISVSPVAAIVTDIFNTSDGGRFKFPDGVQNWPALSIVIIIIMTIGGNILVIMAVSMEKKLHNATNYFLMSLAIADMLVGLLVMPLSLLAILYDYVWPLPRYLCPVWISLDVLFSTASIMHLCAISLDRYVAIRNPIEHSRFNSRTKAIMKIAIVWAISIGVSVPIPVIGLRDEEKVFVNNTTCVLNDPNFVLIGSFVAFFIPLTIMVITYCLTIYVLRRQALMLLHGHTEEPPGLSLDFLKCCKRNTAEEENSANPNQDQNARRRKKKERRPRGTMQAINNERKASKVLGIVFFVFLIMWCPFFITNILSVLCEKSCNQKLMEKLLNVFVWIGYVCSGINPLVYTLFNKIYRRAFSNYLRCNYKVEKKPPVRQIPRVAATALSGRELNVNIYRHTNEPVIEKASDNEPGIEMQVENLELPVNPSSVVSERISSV

[2] = target: Melanin-concentrating hormone receptor 1 (Homo sapiens, UniProt Q99705); assay: Binding affinity to MCHR1 by radioligand binding assay
Chain of Melanin-concentrating hormone receptor 1 (Q99705 whole entry): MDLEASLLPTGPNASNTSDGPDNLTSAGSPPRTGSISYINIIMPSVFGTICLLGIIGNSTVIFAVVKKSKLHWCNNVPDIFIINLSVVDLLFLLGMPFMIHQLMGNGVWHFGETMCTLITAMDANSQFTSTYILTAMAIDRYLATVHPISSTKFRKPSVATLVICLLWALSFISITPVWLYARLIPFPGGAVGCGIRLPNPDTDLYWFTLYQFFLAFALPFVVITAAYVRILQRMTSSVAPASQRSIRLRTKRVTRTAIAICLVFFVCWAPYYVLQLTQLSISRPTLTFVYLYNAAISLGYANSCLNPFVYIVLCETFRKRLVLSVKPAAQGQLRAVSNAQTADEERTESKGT

| Compound | IC50 [1] | Ki [2] |
| --- | --- | --- |
| CCN(CC)Cc1cnc2c(CNC(=O)c3ccc(-c4ccc(F)cc4)nc3)cccc2c1 | 14100 nM | 310 nM |
| CCN(CC)Cc1cnc2c(CNC(=O)c3ccc(-c4ccc(F)cc4)cc3)cccc2c1 | 4160 nM | 102 nM |
| O=C(NCc1cccc2cc(CN3CCOCC3)cnc12)c1ccc(-c2ccc(F)cc2)cc1 | 7470 nM | 1410 nM |
| O=C(NCc1cccc2cc(CN3CCC(O)CC3)cnc12)c1ccc(-c2ccc(F)cc2)cc1 | 2810 nM | 195 nM |
| O=C(NCc1cccc2cc(CN3CC[C@H](O)C3)cnc12)c1ccc(-c2ccc(F)cc2)cc1 | 3590 nM | 142 nM |
| CN(C)Cc1cnc2c(Cn3cnc4cc(-c5ccc(Cl)cc5)sc4c3=O)cccc2c1 | 1310 nM | 197 nM |
| CS(=O)(=O)C1CCN(Cc2cnc3c(CNC(=O)c4ccc(-c5ccc(F)cc5)cc4)cccc3c2)CC1 | > 100000 nM | 310 nM |
| CCN(CC)Cc1cnc2c(Cn3cnc4cc(-c5ccc(Cl)cc5)sc4c3=O)cccc2c1 | 25200 nM | 126 nM |
| O=C(NCc1cccc2cc(CN3CCOCC3)cnc12)c1ccc(-c2ccc(F)cc2)nc1 | > 100000 nM | 20100 nM |
| CN(Cc1cccc2cc(CN3CCCCC3)cnc12)C(=O)c1ccc(-c2ccc(F)cc2)cc1 | 4190 nM | 31 nM |
| CN(CC(=O)N(C)C)Cc1cnc2c(Cn3cnc4cc(-c5ccc(Cl)cc5)sc4c3=O)cccc2c1 | > 100000 nM | 136 nM |
| O=C(NCc1cccc2cc(CN3CCC(O)CC3)cnc12)c1ccc(-c2ccc(F)cc2)nc1 | 14600 nM | 803 nM |
| CN(C)Cc1cnc2c(CNC(=O)c3ccc(-c4ccc(F)cc4)nc3)cccc2c1 | 10300 nM | 414 nM |
| CN1CCN(Cc2cnc3c(CNC(=O)c4ccc(-c5ccc(F)cc5)nc4)cccc3c2)CC1 | 20200 nM | 3540 nM |
| O=C(NCc1cccc2cc(CN3CC[C@H](O)C3)cnc12)c1ccc(-c2ccc(F)cc2)nc1 | 16500 nM | 1150 nM |
| O=c1c2sc(-c3ccc(Cl)cc3)cc2ncn1Cc1cccc2cc(CN3CCCC3)cnc12 | > 100000 nM | 91 nM |
| CS(=O)(=O)N1CCN(Cc2cnc3c(Cn4cnc5cc(-c6ccc(Cl)cc6)sc5c4=O)cccc3c2)CC1 | > 100000 nM | 773 nM |
| O=c1c2sc(-c3ccc(Cl)cc3)cc2ncn1Cc1cccc2cc(CN3CCC(O)CC3)cnc12 | > 100000 nM | 51 nM |
| CN1CCN(Cc2cnc3c(Cn4cnc5cc(-c6ccc(Cl)cc6)sc5c4=O)cccc3c2)CC1 | > 100000 nM | 110 nM |
